Reference: patent US7442703B2, “Piperidine derivatives useful as CCR5 antagonists” (priority 2001, dated 2008)

System: HIV-1 luciferase reporter virus in U87-CD4-CCR5 cells
Experiment: HIV Replication (luciferase) assay
Type: cell-based
Conditions: Human immunodeficiency virus 1, U87/CD4/CCR5, read-out: HIV Replication (luciferase) IC50
Description: Luciferase Replication Assay:
Plasmids encoding the full length genome of HIV-1 pNL-4-Luc with the gp120 V-3 loop replaced by the Bgl II fragment of HIV-1 ADA, YU-2 or HxB (ADA-Luc-FL, YU-2-Luc-FL and HxB-Luc-FL) are obtained from Dr. Susan Pontow (Washington University, St. Louis Mo.). Replication-competent luciferase reporter virus stocks are generated by transfection of plasmids into 293T cells using Superfect (Qiagen) or Mirus transfection reagents. Viral stocks are collected 48 hours following transfection and titered for luciferase production on U-87-CCR5 or CXCR4 cells. U87-CD4-CCR5 cells (10^4/well) are plated in 96-well cell culture plates and incubated overnight. Media is removed and replaced with 50 μl of fresh culture media (DMEM, 10% FCS) and 50 μl of compound diluted in culture medium. Cells are incubated with compound at 37° C. for 1 hour. The resultant supernatant is removed and replaced with 20 μl of media containing compound and infected with an equal volume of diluted or undiluted virus stock at 37° C. for 3-4 hours. The cells are washed once with DMEM, and 200 μl of media containing compound is added. The cultures are incubated for 3 days, the cells lysed in luciferase lysis buffer (Promega, Madison, Wis.) and transferred to Immulon plates (Dynex Technologies, Chantilly Va.). An equal volume of luciferase substrate (Promega, Madison Wis.) is added to lysates and the plates read immediately in a Wallac Luminometer. Fifty and ninety percent inhibitory concentrations are determined using GraphPad PRISM software.

Row | SMILES | IC50
1 | Cc1ncnc(C)c1C(=O)N1CCC(C)(N2CCC(N(Cc3ccccc3)C3CCN(S(=O)(=O)c4cccc(Cl)c4)CC3)CC2)CC1 [Compound 1] | 0.1 nM
2 | Cc1ncnc(C)c1C(=O)N1CCC(C)(N2CCC(N(Cc3ccccc3)C3CCN(S(C)(=O)=O)CC3)CC2)CC1 [Compound 2] | 0.8 nM
3 | Cc1ncnc(C)c1C(=O)N1CCC(C)(N2CCC(N(CC3CC3)C3CCN(S(=O)(=O)c4cccc(Cl)c4)CC3)CC2)CC1 [Compound 3] | 32 nM
4 | Cc1ncnc(C)c1C(=O)N1CCC(C)(N2CCC(N(Cc3ccccc3)C3CCN(Cc4ccccc4)CC3)CC2)CC1 [Compound 4] | 1.7 nM
5 | Cc1ncnc(C)c1C(=O)N1CCC(C)(N2CCC(N(Cc3ccccc3)C3CCN(S(=O)(=O)c4ccccc4Cl)CC3)CC2)CC1 [Compound 5] | 2.1 nM
6 | Cc1ncnc(C)c1C(=O)N1CCC(C)(N2CCC(N(Cc3ccccc3)C3CCN(S(=O)(=O)c4ccc(Cl)cc4)CC3)CC2)CC1 [Compound 6] | 0.9 nM
7 | Cc1ncnc(C)c1C(=O)N1CCC(C)(N2CCC(N(Cc3ccccc3)C3CCN(S(=O)(=O)C4CC4)CC3)CC2)CC1 [Compound 7] | 3 nM
8 | Cc1ncnc(C)c1C(=O)N1CCC(C)(N2CCC(N(Cc3ccccc3)c3ccccc3)CC2)CC1 [Compound 9] | 3 nM
9 | Cc1ncnc(C)c1C(=O)N1CCC(C)(N2CCC(N(Cc3ccccc3)c3ccc(C(F)(F)F)cc3)CC2)CC1 [Compound 10] | 0.5 nM
10 | Cc1ncnc(C)c1C(=O)N1CCC(C)(N2CCC(N(Cc3ccccc3)c3ccc(OC(F)(F)F)cc3)CC2)CC1 [Compound 11] | 0.2 nM
11 | Cc1ncnc(C)c1C(=O)N1CCC(C)(N2CCC(N(Cc3ccccc3)c3ccc(Cl)cc3)CC2)CC1 [Compound 12] | 0.2 nM
12 | Cc1ncnc(C)c1C(=O)N1CCC(C)(N2CCC(N(Cc3ccccc3)c3ccc(C(F)(F)F)nc3)CC2)CC1 [Compound 13] | 0.2 nM
13 | Cc1ncnc(C)c1C(=O)N1CCC(C)(N2CCC(N(Cc3ccccc3)c3ccc(F)cc3)CC2)CC1 [Compound 14] | 0.1 nM
14 | Cc1cc(-c2cc[n+]([O-])cc2)cc(C)c1C(=O)N1CCC(C)(N2CCC(N(Cc3ccccc3)c3ccc(C(F)(F)F)nc3)CC2)CC1 [Compound 16] | 0.5 nM
15 | Cc1ncnc(C)c1C(=O)N1CCC(C)(N2CCC(N(Cc3ccccc3)c3cccc(Br)c3)CC2)CC1 [Compound 17] | 0.1 nM
16 | Cc1ncnc(C)c1C(=O)N1CCC(C)(N2CCC(N(Cc3ccccc3)c3cccc(Cl)c3)CC2)CC1 [Compound 18] | 0.1 nM
17 | Cc1ncnc(C)c1C(=O)N1CCC(C)(N2CCC(N(Cc3ccc(F)cc3)c3cccc(Br)c3)CC2)CC1 [Compound 19] | 0.5 nM
18 | Cc1ncnc(C)c1C(=O)N1CCC(C)(N2CCC(N(Cc3ccccc3)c3cccc(C(F)(F)F)c3)CC2)CC1 [Compound 20] | 0.2 nM
19 | Cc1ncnc(C)c1C(=O)N1CCC(C)(N2CCC(N(Cc3ccccc3)c3ccc(C(C)(C)C)cc3)CC2)CC1 [Compound 21] | 1 nM
20 | Cc1ncnc(C)c1C(=O)N1CCC(C)(N2CCC(N(Cc3ccccc3)c3ccc(C(C)C)cc3)CC2)CC1 [Compound 22] | 0.2 nM
21 | Cc1ncnc(C)c1C(=O)N1CCC(C)(N2CCC(N(Cc3ccccc3)c3ccc(I)cc3)CC2)CC1 [Compound 23] | 0.1 nM

Row | SMILES | IC50
22 | Cc1ncnc(C)c1C(=O)N1CCC(C)(N2CCC(N(Cc3ccccc3)c3cccc(OC(F)(F)F)c3)CC2)CC1 [Compound 24] | 0.2 nM
23 | Cc1ncnc(C)c1C(=O)N1CCC(C)(N2CCC(N(Cc3ccccc3)c3ccc(F)c(F)c3)CC2)CC1 [Compound 25] | 0.1 nM
24 | Cc1ncnc(C)c1C(=O)N1CCC(C)(N2CCC(N(Cc3ccccc3)c3ccc(Cl)c(Cl)c3)CC2)CC1 [Compound 26] | 0.3 nM
25 | Cc1ncnc(C)c1C(=O)N1CCC(C)(N2CCC(N(Cc3ccccc3)c3ccc(F)c(Cl)c3)CC2)CC1 [Compound 27] | 0.1 nM
26 | Cc1cc(N(Cc2ccccc2)C2CCN(C3(C)CCN(C(=O)c4c(C)ncnc4C)CC3)CC2)ccc1Br [Compound 28] | 0.22 nM
27 | COc1ccc(N(Cc2ccccc2)C2CCN(C3(C)CCN(C(=O)c4c(C)ncnc4C)CC3)CC2)cc1Cl [Compound 29] | 0.1 nM
28 | Cc1cc(N(c2ccccc2)C2CCN(C3(C)CCN(C(=O)c4c(C)ncnc4C)CC3)CC2)ccc1Br [Compound 30] | 0.26 nM
29 | Cc1ncnc(C)c1C(=O)N1CCC(C)(N2CCC(N(Cc3ccccc3)c3cccc(F)c3)CC2)CC1 [Compound 31] | 0.44 nM
30 | Cc1ncnc(C)c1C(=O)N1CCC(C)(N2CCC(N(Cc3ccccc3)c3cc(Cl)cc(Cl)c3)CC2)CC1 [Compound 32] | 1.7 nM
31 | COc1cccc(N(Cc2ccccc2)C2CCN(C3(C)CCN(C(=O)c4c(C)ncnc4C)CC3)CC2)c1 [Compound 33] | 0.53 nM
32 | Cc1ncnc(C)c1C(=O)N1CCC(C)(N2CCC(N(Cc3ccccc3)c3cc(C(F)(F)F)cc(C(F)(F)F)c3)CC2)CC1 [Compound 34] | 10 nM
33 | Cc1ncnc(C)c1C(=O)N1CCC(C)(N2CCC(N(Cc3ccccc3)c3ccc(Cl)c(C(F)(F)F)c3)CC2)CC1 [Compound 35] | 2 nM
34 | Cc1ncnc(C)c1C(=O)N1CCC(C)(N2CCC(N(Cc3ccccc3)c3cc(F)cc(F)c3)CC2)CC1 [Compound 36] | 0.1 nM
35 | COc1ccc(N(Cc2ccccc2)C2CCN(C3(C)CCN(C(=O)c4c(C)ncnc4C)CC3)CC2)cc1 [Compound 37] | 0.1 nM
36 | Cc1ncnc(C)c1C(=O)N1CCC(C)(N2CCC(N(Cc3ccccc3)c3ccc(Br)c(C(F)(F)F)c3)CC2)CC1 [Compound 38] | 3 nM
37 | Cc1cccc(N(Cc2ccccc2)C2CCN(C3(C)CCN(C(=O)c4c(C)ncnc4C)CC3)CC2)c1 [Compound 39] | 0.1 nM
38 | CCOc1ccc(N(Cc2ccccc2)C2CCN(C3(C)CCN(C(=O)c4c(C)ncnc4C)CC3)CC2)cc1 [Compound 40] | < 0.1 nM
39 | CCc1ccc(N(Cc2ccccc2)C2CCN(C3(C)CCN(C(=O)c4c(C)ncnc4C)CC3)CC2)cc1 [Compound 41] | < 0.1 nM
40 | Cc1ncnc(C)c1C(=O)N1CCC(C)(N2CCC(N(Cc3ccccc3)c3ccccc3F)CC2)CC1 [Compound 42] | 0.8 nM
41 | Cc1ncnc(C)c1C(=O)N1CCC(C)(N2CCC(N(Cc3ccccc3)c3ccc(Oc4ccccc4)cc3)CC2)CC1 [Compound 43] | 2 nM
42 | Cc1ncnc(C)c1C(=O)N1CCC(C)(N2CCC(N(Cc3ccccc3)c3cccc(C#N)c3)CC2)CC1 [Compound 44] | 0.1 nM

Row | SMILES | IC50
43 | Cc1ncnc(C)c1C(=O)N1CCC(C)(N2CCC(N(Cc3ccccc3)c3ccc(N4CCOCC4)cc3)CC2)CC1 [Compound 45] | 0.9 nM
44 | Cc1ncnc(C)c1C(=O)N1CCC(C)(N2CCC(N(Cc3ccccc3)c3ccn(Cc4ccccc4)n3)CC2)CC1 [Compound 46] | 2 nM
45 | Cc1ncnc(C)c1C(=O)N1CCC(C)(N2CCC(N(Cc3ccccc3)c3ccc(CCNS(C)(=O)=O)cc3)CC2)CC1 [Compound 47] | 0.05 nM
46 | CC(=O)NCCc1ccc(N(Cc2ccccc2)C2CCN(C3(C)CCN(C(=O)c4c(C)ncnc4C)CC3)CC2)cc1 [Compound 49] | 0.4 nM
47 | Cc1ncnc(C)c1C(=O)N1CCC(C)(N2CCC(N(Cc3ccccc3)c3ccc(Cl)c4cccnc34)CC2)CC1 [Compound 51] | 0.32 nM
48 | Cc1ncnc(C)c1C(=O)N1CCC(C)(N2CCC(N(Cc3ccccc3)c3ccc(Br)c4cccnc34)CC2)CC1 [Compound 52] | 1 nM
49 | Cc1ncnc(C)c1C(=O)N1CCC(C)(N2CCC(N(Cc3ccccc3)c3cccc4cccnc34)CC2)CC1 [Compound 53] | 0.6 nM
50 | C=CCOC(=O)NCCc1ccc(N(Cc2ccccc2)C2CCN(C3(C)CCN(C(=O)c4c(C)ncnc4C)CC3)CC2)cc1 [Compound 54] | 0.6 nM
51 | Cc1ncnc(C)c1C(=O)N1CCC(C)(N2CCC(N(Cc3ccccc3)c3ccc(CCN)cc3)CC2)CC1 [Compound 55] | 3.5 nM
52 | Cc1ncnc(C)c1C(=O)N1CCC(C)(N2CCC(N(Cc3ccccc3)c3ccc(CCNS(=O)(=O)C4CC4)cc3)CC2)CC1 [Compound 56] | 0.2 nM
53 | Cc1ncnc(C)c1C(=O)N1CCC(C)(N2CCC(N(Cc3ccccc3)c3ccc(CCNS(=O)(=O)CC(F)(F)F)cc3)CC2)CC1 [Compound 57] | 0.4 nM
54 | C=CCOC(=O)c1ccc(N(Cc2ccccc2)C2CCN(C3(C)CCN(C(=O)c4c(C)ncnc4C)CC3)CC2)cc1 [Compound 58] | 2 nM
55 | Cc1ncnc(C)c1C(=O)N1CCC(C)(N2CCC(N(Cc3ccccc3)c3cccc(C(=O)O)c3)CC2)CC1 [Compound 59] | 4 nM
56 | Cc1ncnc(C)c1C(=O)N1CCC(C)(N2CCC(N(Cc3ccccc3)c3ccc(C(=O)O)cc3)CC2)CC1 [Compound 60] | 27 nM
57 | Cc1ncnc(C)c1C(=O)N1CCC(C)(N2CCC(N(Cc3ccccc3)c3cccc(C(N)=O)c3)CC2)CC1 [Compound 61] | 0.5 nM
58 | Cc1ncnc(C)c1C(=O)N1CCC(C)(N2CCC(N(Cc3ccccc3)c3cccc(C(=O)N4CCOCC4)c3)CC2)CC1 [Compound 62] | 4 nM
59 | CCN(CC)C(=O)c1cccc(N(Cc2ccccc2)C2CCN(C3(C)CCN(C(=O)c4c(C)ncnc4C)CC3)CC2)c1 [Compound 63] | 6 nM
60 | Cc1ncnc(C)c1C(=O)N1CCC(C)(N2CCC(N(Cc3ccccc3)c3cccc(C(=O)NO)c3)CC2)CC1 [Compound 64] | 4 nM
61 | Cc1ncnc(C)c1C(=O)N1CCC(C)(N2CCC(N(Cc3ccccc3)c3cccc(C(=O)Nc4ccccc4)c3)CC2)CC1 [Compound 65] | 2 nM
